Values of other authors, collected in patent publication US20060240493A1, “Cca1 as an antifungal target” (priority 2002, published 2006).

Settings: mice, DOX 2 mg/ml in 5% sucrose drinking water, approximately 5 ml every day

In the case of `C[C@H]1c2cccc(O)c2C(=O)C2=C(O)[C@]3(O)C(=O)C(C(N)=O)=C(O)[C@@H](N(C)C)[C@@H]3[C@@H](O)[C@@H]21` [doxycycline], the “concentration of DOX in kidney” value is listed as > 10 mg/g of kidney, the “concentration of DOX in liver” value is listed as > 8 mg/g of liver and the “concentration of DOX in serum” value is listed as “more than 2 mg/ml of serum”.
